Test results taken from patent US20250230226A1, “PLXDC1/PLXDC2 ACTIVATORS AND THEIR USE IN THE TREATMENT OF BLOOD VESSEL DISORDERS” (THE REGENTS OF THE UNIVERSITY OF CALIFORNIA, priority 2019, published 2025).

What was measured:
[1] = tested on: CT26.CL25 colon cancer tumor endothelial cells; assay: Colon CT26 ex vivo model of tumor angiogenesis; assay type: cell-based, mouse; conditions: for cytotoxicity at 40 µM / cytotoxicity at 20 µM / cytotoxicity at 10 µM: Mus musculus, Endothelial cell, 48 h, read-out: Cell death
Outline: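 Cell death was read by FDA (live, green) and PI (dead, red) fluorescence imaging, e.g. 48 h after treatment. Treatment began once endothelial cells had grown out of Matrigel-embedded CT26 colon tumor fragments, typically after 7 days of culture in endothelial growth medium at 37 °C.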

[2] = tested on: LL/2 lung cancer tumor endothelial cells; assay: Lung LL2 ex vivo model of tumor angiogenesis; assay type: cell-based, mouse; conditions: for 48 hrs (morphology observations): LL/2 tumor endothelial cells; for Cell death: drug treatment for two days, ratio of red area to total endothelial cell area; for cytotoxicity at 40 µM / cytotoxicity at 20 µM: Mus musculus, Endothelial cell, 48 h, read-out: Cell death
Outline: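 Live/dead imaging with FDA and PI, taken e.g. 48 h post-drug under fixed channel settings, measures treatment effects on endothelial cells sprouting from Lewis lung tumor explants. Explants were seeded in Matrigel drops and grown ~4 days in endothelial growth medium, 37 °C, 5% CO2, before dosing.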

Structure (SMILES) | 48 hrs (morphology observations after 48 hours) ([1]; Conc. 40 μm) | cytotoxicity at 40 µM [1] [%] | 48 hrs (morphology observations) ([2]; 40 μm) | Cell death ([2]; 40 μm) [%] | cytotoxicity at 40 µM [2] [%] | also measured
CCCCOc1ccc(S(=O)(=O)c2cnc3ccc(C(=O)NC(C)C)cc3c2N2CCCN(C)CC2)cc1 [Compound 192] | 0 | 10 | *** (more than 50% but less than 100% of endothelial cells vesicularize in cell shape) | 60 |  | 
CCCCOc1ccc(S(=O)(=O)c2cnc3ccc(C(=O)OCC)cc3c2N2CCC(N3CCC(N4CCCCC4)CC3)CC2)cc1 [Compound 216] | **** (100% of endothelial cells vesicularize in cell shape and look flattened in morphology (indicating disintegration of the cell body)) | 100 | **** (100% of endothelial cells vesicularize in cell shape and look flattened in morphology (indicating disintegration of the cell body)) |  | 100 | 
CCCCOc1ccc(S(=O)(=O)c2cnc3ccc(C(=O)NCCO)cc3c2N2CCC(N3CCCCC3)CC2)cc1 [Compound 202] | 0 | 10 |  |  | 30 | 
CCc1ccc(S(=O)(=O)c2cnc3ccc([N+](=O)[O-])cc3c2N2CCC(N3CCCCC3)CC2)cc1 [Compound 77] | 0 | 40 |  | 80 |  | 
CCOC(=O)c1ccc2ncc(S(=O)(=O)c3ccc(CC)cc3)c(N3CCCN(C)CC3)c2c1 [Compound 63] | *** (100% of endothelial cells vesicularize in cell shape) | 70 |  | 50 |  | 
CCc1ccc(S(=O)(=O)c2cnc3ccc(CC#N)cc3c2N2CCC(N3CCCCC3)CC2)cc1 [Compound 55] | 0 | 50 |  | 70 |  | 
CCCCOc1ccc(S(=O)(=O)c2cnc3ccc(C(=O)OCC)cc3c2N2CCC(N3CCCCC3)CC2)cc1 [Compound 157] | **** (100% of endothelial cells vesicularize in cell shape and look flattened in morphology (indicating disintegration of the cell body)) | 60 | *** (more than 50% but less than 100% of endothelial cells vesicularize in cell shape) | 100 |  | 
CCc1ccc(S(=O)(=O)c2cnc3ccc(OC(F)(F)F)cc3c2-n2cnc(C)c2)cc1 [Compound 117] |  |  |  |  |  | 48 hrs (morphology observations after 48 hours) ([1]; Conc. 20 μm): *** (100% of endothelial cells vesicularize in cell shape); cytotoxicity at 20 µM [1]: 100%; 48 hrs (morphology observations) ([2]; 20 μm): *** (more than 50% but less than 100% of endothelial cells vesicularize in cell shape); cytotoxicity at 20 µM [2]: 100%
CCCCOc1ccc(S(=O)(=O)c2cnc3ccc(OC(F)(F)F)cc3c2-n2cncn2)cc1 [Compound 93] |  |  |  |  |  | 48 hrs (morphology observations after 48 hours) ([1]; Conc. 10 μm): *** (100% of endothelial cells vesicularize in cell shape); cytotoxicity at 10 µM [1]: 100%; 48 hrs (morphology observations) ([2]; 20 μm): *** (more than 50% but less than 100% of endothelial cells vesicularize in cell shape); cytotoxicity at 20 µM [2]: 100%
COc1ccc(S(=O)(=O)c2cnc3ccc(OC(F)(F)F)cc3c2NCCO)cc1OC [Compound 69] | 0 | 0 | 0 |  | 20 | 
CCc1ccc(S(=O)(=O)c2cnc3ccc(OC(F)(F)F)cc3c2N2CCC(N3CCCC3)CC2)cc1 [Compound 46] | **** (100% of endothelial cells vesicularize in cell shape and look flattened in morphology (indicating disintegration of the cell body)) | 100 | **** (100% of endothelial cells vesicularize in cell shape and look flattened in morphology (indicating disintegration of the cell body)) |  | 100 | 
CCc1ccc(S(=O)(=O)c2cnc3ccc(OC(F)(F)F)cc3c2-n2ccnc2)cc1 [Compound 118] |  |  |  |  |  | 48 hrs (morphology observations after 48 hours) ([1]; Conc. 20 μm): *** (100% of endothelial cells vesicularize in cell shape); cytotoxicity at 20 µM [1]: 100%; 48 hrs (morphology observations) ([2]; 20 μm): *** (more than 50% but less than 100% of endothelial cells vesicularize in cell shape); cytotoxicity at 20 µM [2]: 100%
CCCCOc1ccc2ncc(S(=O)(=O)c3ccc(OC)c(OC)c3)c(N3CCC(N4CCCCC4)CC3)c2c1 [Compound 116] |  |  |  |  |  | 48 hrs (morphology observations after 48 hours) ([1]; Conc. 20 μm): * (50% or less of cells vesicularize in cell shape); cytotoxicity at 20 µM [1]: 50%; 48 hrs (morphology observations) ([2]; 20 μm): *** (more than 50% but less than 100% of endothelial cells vesicularize in cell shape); Cell death ([2]; 20 μm): 100%
CCCCOc1ccc(S(=O)(=O)c2cnc3ccc(C(=O)OCC)cc3c2N2CCC(N3CCCN(C)CC3)CC2)cc1 [Compound 211] | **** (100% of endothelial cells vesicularize in cell shape and look flattened in morphology (indicating disintegration of the cell body)) | 100 | **** (100% of endothelial cells vesicularize in cell shape and look flattened in morphology (indicating disintegration of the cell body)) |  | 100 | 
CCCCOc1ccc(S(=O)(=O)c2cnc3ccc(SC)cc3c2N2CCC(N3CCCCC3)CC2)cc1 [Compound 159] | **** (100% of endothelial cells vesicularize in cell shape and look flattened in morphology (indicating disintegration of the cell body)) | 100 | **** (100% of endothelial cells vesicularize in cell shape and look flattened in morphology (indicating disintegration of the cell body)) |  | 100 | 
CCCCOc1ccc(S(=O)(=O)c2cnc3ccc(OC(F)(F)F)cc3c2N2CCC(N3CCC(O)CC3)CC2)cc1 [Compound 152] | ** (more than 50% but less than 100% of endothelial cells vesicularize in cell shape) | 30 |  |  |  | 48 hrs (morphology observations) ([2]; 20 μm): * (50% or less of cells vesicularize in cell shape); Cell death ([2]; 20 μm): 20%
CCOC(=O)c1ccc2ncc(S(=O)(=O)c3ccc(CC)cc3)c(NN3CCN(C)CC3)c2c1 [Compound 84] | * (50% or less of cells vesicularize in cell shape) | 100 |  |  | 100 | 
CCCCOc1ccc(S(=O)(=O)c2cnc3ccc(C(=O)OCC)cc3c2N2CCC(N3CCN(CCO)CC3)CC2)cc1 [Compound 214] | **** (100% of endothelial cells vesicularize in cell shape and look flattened in morphology (indicating disintegration of the cell body)) | 100 | **** (100% of endothelial cells vesicularize in cell shape and look flattened in morphology (indicating disintegration of the cell body)) |  | 100 | 
CCc1ccc(S(=O)(=O)c2cnc3ccc([N+](=O)[O-])cc3c2N2CCCN(C)CC2)cc1 [Compound 76] | ** (more than 50% but less than 100% of endothelial cells vesicularize in cell shape) | 100 | 0 | 20 |  | 
CCc1ccc(S(=O)(=O)c2cnc3ccc(OC(F)(F)F)cc3c2N2CCCN(CC(=O)O)CC2)cc1 [Compound 42] | 0 | 0 |  | 30 |  | 
CCc1ccc(S(=O)(=O)c2cnc3ccc(C(=O)O)cc3c2N2CCC(N3CCCCC3)CC2)cc1 [Compound 67] | 0 | 0 |  | 10 |  | 
CCCCOc1ccc(S(=O)(=O)c2cnc3ccc(C(=O)OCC)cc3c2N2CCSCC2)cc1 [Compound 191] | 0 | 10 |  | 30 |  | 
CCc1ccc(S(=O)(=O)c2cnc3ccc(OC(F)(F)F)cc3c2N(C)Cc2ccccc2)cc1 [Compound 49] | 0 | 10 |  | 30 |  | 
COc1ccc(S(=O)(=O)c2cnc3ccc(SC)cc3c2N2CCCN(C)CC2)cc1OC [Compound 154] | * (50% or less of cells vesicularize in cell shape) | 30 | * (50% or less of cells vesicularize in cell shape) |  | 30 | 
CCCCOc1ccc(S(=O)(=O)c2cnc3ccc(SC)cc3c2N2CCCN(CCN3CCCCC3)CC2)cc1 [Compound 206] | **** (100% of endothelial cells vesicularize in cell shape and look flattened in morphology (indicating disintegration of the cell body)) | 100 |  |  |  | 48 hrs (morphology observations) ([2]; 20 μm): 0; Cell death ([2]; 20 μm): 30%
CCCCN(CCCC)c1c(S(=O)(=O)c2ccc(OC)cc2)cnc2ccc(C(=O)OCC)cc12 [Compound 155] | *** (100% of endothelial cells vesicularize in cell shape) | 20 | *** (more than 50% but less than 100% of endothelial cells vesicularize in cell shape) |  | 80 | 
COc1ccc(S(=O)(=O)c2cnc3ccc(OC(F)(F)F)cc3c2-n2cncn2)cc1 [Compound 86] |  |  |  |  |  | 48 hrs (morphology observations after 48 hours) ([1]; Conc. 10 μm): *** (100% of endothelial cells vesicularize in cell shape); cytotoxicity at 10 µM [1]: 100%; 48 hrs (morphology observations) ([2]; 20 μm): *** (more than 50% but less than 100% of endothelial cells vesicularize in cell shape); cytotoxicity at 20 µM [2]: 100%
COc1ccc(S(=O)(=O)c2cnc3ccc(OC(F)(F)F)cc3c2N2CCC(O)CC2)cc1 [Compound 44] | 0 | 0 |  | 50 |  | 
